Experimental data taken from patent US12317913B2, “Dietary butyrate” (SOCIETE DES PRODUITS NESTLE S.A., priority 2019, dated 2025).

Columns and labels:
[1] = target: T1, porcine pancreatic lipase (PPL) (Sus scrofa, UniProt P00591); experiment: In vitro digestion in simulated intestinal fluid (SIF), pH-stat; type: in vitro ADME; details: SIF alone; emulsion with 200 mg fat; pH 6.8, 37° C.
T1 construct: by porcine pancreatic lipase (from pancreatin); from tissue; host or cells: pancreatin (pancreatic extract)
T1 sequence (P00591 1-450): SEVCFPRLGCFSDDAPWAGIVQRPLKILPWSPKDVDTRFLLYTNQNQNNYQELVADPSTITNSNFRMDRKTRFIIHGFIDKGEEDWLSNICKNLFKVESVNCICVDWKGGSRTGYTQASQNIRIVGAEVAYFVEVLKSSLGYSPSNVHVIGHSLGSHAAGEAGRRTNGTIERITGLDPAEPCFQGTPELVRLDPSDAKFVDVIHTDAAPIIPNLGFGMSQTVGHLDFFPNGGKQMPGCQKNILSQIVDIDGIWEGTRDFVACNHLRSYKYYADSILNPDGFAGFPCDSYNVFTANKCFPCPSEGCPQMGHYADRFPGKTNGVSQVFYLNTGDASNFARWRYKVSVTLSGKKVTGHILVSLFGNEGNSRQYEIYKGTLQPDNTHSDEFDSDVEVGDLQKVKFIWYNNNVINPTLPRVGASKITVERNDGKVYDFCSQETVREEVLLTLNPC
T1 sequence (P02703 23-112 partner): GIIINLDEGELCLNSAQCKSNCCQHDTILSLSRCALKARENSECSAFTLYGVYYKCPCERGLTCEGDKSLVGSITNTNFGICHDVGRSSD
Description: (§1) An emulsion was then created using an ultrasonic probe homogeniser.

[2] = test system: rabbit gastric lipase (RGL) followed by porcine pancreatic lipase (PPL); experiment: Sequential in vitro digestion, simulated gastric fluid (SGF) then simulated intestinal fluid (SIF); type: in vitro ADME
Description: as §1

Human primary myoblasts = experiment: Muscle stem cell commitment (MyoD+ cells); type: cell-based; details: donors 8 and 4; 96 hours culture; FIG. 3
Protocol: Human primary myoblasts from two different donors (donor 8 & donor 4) were seeded in 384 well plates at a density of 1'000 cells per well in skeletal muscle growth medium (SKM-M, AMSbio). For treatment, compounds were directly added to the myoblast cultures 16 hours after initial plating. All cultures were then grown for 96 hours. Cells were stained for Pax7 and MyoD expression using antibodies directed against Pax7 and MyoD and counterstained with Hoechst 33342 to visualize cell nuclei. […] Image acquisition was performed using the ImageXpress (Molecular Devices) platform. Custom module analysis based on Multi-Wavelength Cell Scoring of the MetaXpress software was used for quantification. For each condition, the total number of cells was determined to evaluate compound toxicity, and the number of MyoD+ cells was normalized to the total cell number in order to evaluate the proportion of this population. *, **, ***, **** indicates difference from the control (DMSO 1%), One-way ANOVA, with p<0.05, p<0.01, p<0.001, p<0.0001, respectively. Data are presented as Mean +/− SEM

## CCCC(=O)OCC(COC(=O)CCC)OC(=O)CCC [tributyrin]
[1]
  Initial rate of lipolysis: 223 ± 59 µmol/min
[2]; SGF-SIF sequential digestion, measured in SIF compartment
  Initial lipolysis rate in SIF: 44.1 ± 8.8 µmol/min
[2]; gastric compartment, inferred from SGF-SIF vs SIF
  Hydrolysis in the stomach (gastric lipolysis), in words: extensive hydrolysis in the stomach
[2]; indicated by decreased total fatty acid release in SIF after RGL in SGF
  Lipolysis by gastric lipase: −60%

## CCCC(=O)[O-].[Na+] [sodium butyrate]
Human primary myoblasts
  Myogenic commitment (MyoD+ cells normalized to total cell number): promotes muscle stem cell differention
